According to patent US8574551B2, “Compositions useful for reducing nephrotoxicity and methods of use thereof” (Verrow Pharmaceuticals, Inc., priority 2005, dated 2013):

What was measured:
Type in all cases: in vivo, C57BL/6 mice
kidney [1] = test: Acyclovir induced nephrotoxicity in mildly renal compromised mice; conditions: acyclovir 10 or 30 mg/kg IV, 10 consecutive days, alone
Protocol: These doses however, produce nephrotoxicity in humans. Therefore, the nephroprotective effects of sulfobutylether β cyclodextrin (SBEβCD) in mildly renal compromised mice was evaluated. […] In order to produce mildly renal compromised mice, animals were injected with L-NAME (L arginine methyl ester) 10 mg/kg and Indomethacin 10 mg/kg, ip., 15-20 min before the first injection of acyclovir. Female C57BL/6 mice were administered bolus intravenous injections for ten consecutive days with a dose of 10 mg/kg acyclovir (N=3) or acyclovir 10 mg/kg+SBEβCD 173 mg/kg (N=3), or 30 mg/kg acyclovir (N=3) or acyclovir 30 mg/kg+SBEβCD 520 mg/kg (N=3) (Table 6). In both cases the acyclovir to SBEβCD molar ratio was 1:2. Animals were sacrificed after 48 hrs after the last injection. Renal pathology was assessed by evaluating H&E sections of the kidney under a light microscope. Paraffin sections of […] were cut and stained with H&E and periodic acid Schiff (PAS). They were examined by light microscopy and scored in a blinded fashion. Five arbitratary fields at 40× magnification in each sections was assessed according to the below mentioned parameters and scored according to the criteria mentioned.

kidney [2] = test: Iohexyl induced nephrotoxicity in mildly renal compromised mice; conditions: iohexyl 1.5 g/kg iv once, alone, 24 hrs
Protocol: Iohexyl is nephrotoxic in humans and can produce acute renal failure in renally compromised patients. Therefore, the nephroprotective effects of sulfobutyl ethyl β cyclodextrin (SBE-βCD) in a contrast agent induced nephropathy model involving mildly renal compromised mice was evaluated. […] In order to produce mildly renal compromised mice, female C57BL/6 mice were injected with nitric oxide synthase inhibitor L-NAME (L arginine methyl ester) 10 mg/kg and prostaglandin synthesis inhibitor Indomethacin 10 mg/kg, ip., 15-20 min before injecting of iohexyl. The mice were administered a single bolus intravenous injections of iohexyl 1.5 g/kg (N=4) or iohexyl 1.5 g/kg+SBE-βCD 1.3 g/kg (N=4), or iohexyl 1.5 g/kg+SBE-βCD […] administered 30 minutes before, concurrently, and 30 min after iohexyl injection (N=4) (Table 7). In both cases, the iohexyl to SBE-βCD molar ratio was 1:0.1 during the concurrent dose. […] Renal pathology was assessed by evaluating H&E sections of the kidney under a light microscope.
Paraffin sections of […] were cut and stained with H&E and periodic acid Schiff (PAS). They were examined by light microscopy and scored in a blinded fashion. At 40× magnification, five arbitrary fields in each section was assessed for the below mentioned parameters and scored blindly according to the criteria mentioned. A total of 4 sections were analyzed per kidney.

kidney [3] = test: Doxorubicin induced nephrotoxicity model in mice; conditions: doxorubicin 10 mg/kg single iv dose; 72 hours
Protocol: Female C57BL/6 mice were injected intravenously with a single dose of (10 mg/kg) doxorubicin. The mice were sacrificed after 72 hours. The development of glumerular and tubulointerstitial injury after doxorubicin and doxorubicin+Captisol was evaluated by means of renal histology. Paraffin sections of […] were cut and stained with H&E and periodic acid Schiff (PAS). They were examined by light microscopy and scored in a blinded fashion. Thirty glomeruli and neighboring tubules were scored at superficial cortes (near the surface of the capsule). One hundred glomeruli and neighboring tubules were scored at the level of deep renal cortex and around the outer strips of the outer medulla.

kidney [4] = test: Gentamicin induced nephrotoxicity in mice; conditions: 10 consecutive days
Protocol: These doses however, produce nephrotoxicity in humans. Therefore, nephroprotective effects of SBE-βCD in mildly renal compromised mice was evaluated. […] In order to produce mildly renal compromised mice, animals were injected with L-NAME (L arginine methyl ester) 10 mg/kg and Indomethacin 10 mg/kg, ip., 15-20 min before the first injection of gentamicin. Female C57BL/6 mice were administered bolus intravenous injections for ten consecutive days with a dose of 4.0 mg/kg gentamicin (N=4) or gentamicin 4.0 mg/kg+SBE-βCD 19.2 mg/kg (N=4), or gentamicin 4.0 mg/kg+SBE-βCD 38.4 mg/kg (N=4). Gentamicin to SBE-βCD molar ratios were 1:1 and 1:2 respectively. Animals were sacrificed after 48 hrs after the last injection. Renal pathology was assessed by evaluating H&E sections of the kidney under light microscope.
Paraffin sections of […] were cut and stained with H&E and periodic acid Schiff (PAS). They were examined by light microscopy and scored in a blinded fashion. Five arbitrary fields at 40× magnification in each sections was assessed for the below mentioned parameters and scored according to the criteria mentioned

**Q.** For Nc1nc2c(ncn2COCCO)c(=O)[nH]1 [Acyclovir, acyclovir], which renal histology (kidney [1]) is on record?
**A.** moderate to severe signs of tubulopathy

**Q.** CC(=O)N(CC(O)CO)c1c(I)c(C(=O)NCC(O)CO)c(I)c(C(=O)NCC(O)CO)c1I (centres unmarked) [Iohexyl, iohexyl] was tested. Which renal histology (kidney [2]) did it give?
**A.** moderate to severe signs of tubulopathy

**Q.** With COc1cccc2c1C(=O)c1c(O)c3c(c(O)c1C2=O)C[C@@](O)(C(=O)CO)C[C@@H]3O[C@H]1C[C@H](N)[C@H](O)[C@H](C)O1 [doxorubicin] as the compound, how does the renal histology (kidney [3]) read?
**A.** tubular casts, abundant dilated tubules and moderate loss of brush border in the some proximal tubules

**Q.** With gentamicin as the compound, how does the renal histology (kidney [4]; healthy mice, gentamicin 4 mg/kg intravenously) read?
**A.** no noticeable changes in the tubular cells in the healthy kidney

**Q.** What about the renal histology (kidney [4]; mild renal compromised mice (L-NAME + Indomethacin), gentamicin 4 mg/kg iv) of the same compound?
**A.** extensive tubular vacuolization and necrosis in the renal cortex
